Experimental data as given in patent US12303898B2, “Microfluidic devices and methods of use” (The Governing Council of the University of Toronto, priority 2018, dated 2025).

Key:
[1] = system: QPCTL target loci; assay: CRISPR editing analysis (TIDE / ICE) of double-sgRNA infected samples, QPCTL target loci; format: cell-based, human; conditions: two independent experiments; for mean percent edited: TIDE
Description: Generation of CD47, QPCT and QPCTL knock-out cells. For transduction experiments using cell pools, single-stranded sgRNA oligos were annealed using T4 PNK in T4 ligation buffer (both NEB), and ligated into digested (BsmBI; NEB), phosphatase-treated (rSAP or CIP, NEB) and gel-purified modified pLCKO (for HAP1-Cas9) or pLCV2 (for HAP1, 293T and KMS11) backbones^24,25 using T4 DNA ligase. All plasmids were Sanger sequence verified and virus was prepared and titered as described above. HAP1, HAP1-Cas9 cells, 293T cells or KMS11 cells were infected with target and control gRNAs (MOI<1) in presence of 8 μg/ml polybrene. 24 h post infection, the medium was replaced with fresh medium containing puromycin (1 ug/ml for HAP1 and HAP1-Cas9, 1-2 ug/ml for 293T, 0.5 ug/ml for KMS11) and cells were incubated for 48 h. Cells were further cultured in selection-free medium as indicated for individual experiments (typically T3-T6), and passaged every 3-4 days. […] For infections with two sgRNAs (HAP1-Cas9 only), the second sgRNA was cloned into pLCKO hygro. Selection was carried out in puromycin (1 ug/ml) and hygromycin (800 ug/ml)-containing medium for the first 48 h, then in hygromycin-only medium for further 4-5 days. […] Single-cell colonies were expanded, cryo-banked (in standard medium with 10% DMSO and a total of 20% FBS) and analyzed for mutations as described below. […]
CRISPR editing analysis. For analysing indels after CRISPR-mediated editing, genomic DNA was isolated using the QIAamp DNA Blood Mini kit (Qiagen) or the Extracta DNA Prep kit (Quantabio). sgRNA target regions (100-200 bp up- and 500 bp downstream of sgRNA sequence) were amplified by touchdown PCR (−0.5° C./cycle from 72° C. to 60° C. plus 10 additional cycles at 59° C.) from 50-100 ng input DNA, PCR products were purified using the PureLink Quick PCR purification kit (Invitrogen) if necessary and analyzed by Sanger sequencing. Sequences were analyzed to determine the percentage of edited sequences contained in the sample using TIDE^49 and a “KO-score” using ICE^50 (Synthego). […]

[2] = system: QPCT target loci; assay: CRISPR editing analysis (TIDE / ICE) of double-sgRNA infected samples, QPCT target loci; format: cell-based, human; conditions: two independent experiments; for KO-score: ICE; for mean percent edited: TIDE
Description: Generation of CD47, QPCT and QPCTL knock-out cells. For transduction experiments using cell pools, single-stranded sgRNA oligos were annealed using T4 PNK in T4 ligation buffer (both NEB), and ligated into digested (BsmBI; NEB), phosphatase-treated (rSAP or CIP, NEB) and gel-purified modified pLCKO (for HAP1-Cas9) or pLCV2 (for HAP1, 293T and KMS11) backbones^24,25 using T4 DNA ligase. All plasmids were Sanger sequence verified and virus was prepared and titered as described above. HAP1, HAP1-Cas9 cells, 293T cells or KMS11 cells were infected with target and control gRNAs (MOI<1) in presence of 8 μg/ml polybrene. 24 h post infection, the medium was replaced with fresh medium containing puromycin (1 ug/ml for HAP1 and HAP1-Cas9, 1-2 ug/ml for 293T, 0.5 ug/ml for KMS11) and cells were incubated for 48 h. Cells were further cultured in selection-free medium as indicated for individual experiments (typically T3-T6), and passaged every 3-4 days. […] For infections with two sgRNAs (HAP1-Cas9 only), the second sgRNA was cloned into pLCKO hygro. Selection was carried out in puromycin (1 ug/ml) and hygromycin (800 ug/ml)-containing medium for the first 48 h, then in hygromycin-only medium for further 4-5 days. For single-cell knock-out clones (HAP1 only), sgRNAs were cloned into modified PX459v2.0 (from Addgene #62988, 1 kb stuffer sequence added). HAP1 cells were transfected using Lipofectamine 3000 (3.75 μl and 2.3 μg plasmid per 6-well), selected with puromycin for 48 h as above and seeded in limiting dilutions (1 cell/100 μl/96-well) 3 days later. Single-cell colonies were expanded, cryo-banked (in standard medium with 10% DMSO and a total of 20% FBS) and analyzed for mutations as described below. An sgRNA targeting the AAVS1 locus was used as negative control.
CRISPR editing analysis. For analysing indels after CRISPR-mediated editing, genomic DNA was isolated using the QIAamp DNA Blood Mini kit (Qiagen) or the Extracta DNA Prep kit (Quantabio). sgRNA target regions (100-200 bp up- and 500 bp downstream of sgRNA sequence) were amplified by touchdown PCR (−0.5° C./cycle from 72° C. to 60° C. plus 10 additional cycles at 59° C.) from 50-100 ng input DNA, PCR products were purified using the PureLink Quick PCR purification kit (Invitrogen) if necessary and analyzed by Sanger sequencing. Sequences were analyzed to determine the percentage of edited sequences contained in the sample using TIDE^49 and a “KO-score” using ICE^50 (Synthego). Non-edited cells amplified with the same primers were used as control samples. A representative analysis of double-sgRNA infected samples from two independent experiments yielded the following editing results for QPCT and QPCTL target loci (by sgRNA; mean percent edited/KO-score±SD): QPCTL #1 58.2/NA±16.2/N, QPCTL #2 33.23/47±32.96/0, QPCT #1 33.15/56±36.51/0, QPCT #2 80.2/76.4±19.85/2.42, QPCT #3 68.18/36.33±4.29/2.08; AAVS1/CD47 #1 (background or off-target, mean±SD over all QPCT and QPCTL target loci) 14.4/1.33±14.95/0.58. For single-cell derived clones, TIDE and ICE were used for screening purposes, and mutations were independently confirmed by PCR, Sanger sequencing and sequence alignment as described.

[3] = system: CD47; assay: Validation of CD47 sgRNA knock-out HAP1 cell lines by flow cytometry and microfluidic sorting; format: cell-based, human; conditions: HAP1 cells, CD47 gene (FIG. 11C)
Text: As shown in FIG. 11A-C, this included sorting the wildtype (WT) HAP1 cells at different flow rates to decide on the ideal operating conditions, assessing the sorting of HAP1 cells transduced with sgRNAs targeting the CD47 gene (which should result in a decrease in the number of CD47+ cells), and mixing WT and clone cells together, sorting them and recovering the initial ratios. Experimental parameters were designed to have the majority of WT HAP1s be sorted into the middle bin thus upregulation and downregulation of CD47 could be assessed. […]
MICS sorting. […] Cells were sorted by MICS at a concentration of ˜5×10^6 cells/ml in HBSS with 2% BSA; initial cell concentration was measured using a Countess Automated Cell Counter (Invitrogen). […] Sorted samples were collected in their respective syringes, and the volume of solution collected in each syringe was measured by weight. […] Each sample was then loaded onto a 10-chambered microscope slide (Quick Read 3805, Globe Scientific) and cells were counted under fluorescent excitation using a custom counting macro and a Nikon TI Eclipse microscope. Sort efficiency was calculated by dividing the number of cells collected in the medium and high outlets by the total number of cells collected (low, medium and high). […]

[4] = target: T1, QPCTL (Homo sapiens, UniProt Q9NXS2); assay: Flow cytometry and immunofluorescence of CD47 antibody binding in HAP1 cells after QPCTL inhibitor treatment; format: cell-based; conditions: inhibitor treatment (FIG. 14B, 14D, 14E), CC2C6 detects pyro-Glu modified CD47
T1 construct: endogenous in cells; host or cells: HAP1 cells (Horizon, clone C631)
T1 sequence (Q9NXS2 whole entry): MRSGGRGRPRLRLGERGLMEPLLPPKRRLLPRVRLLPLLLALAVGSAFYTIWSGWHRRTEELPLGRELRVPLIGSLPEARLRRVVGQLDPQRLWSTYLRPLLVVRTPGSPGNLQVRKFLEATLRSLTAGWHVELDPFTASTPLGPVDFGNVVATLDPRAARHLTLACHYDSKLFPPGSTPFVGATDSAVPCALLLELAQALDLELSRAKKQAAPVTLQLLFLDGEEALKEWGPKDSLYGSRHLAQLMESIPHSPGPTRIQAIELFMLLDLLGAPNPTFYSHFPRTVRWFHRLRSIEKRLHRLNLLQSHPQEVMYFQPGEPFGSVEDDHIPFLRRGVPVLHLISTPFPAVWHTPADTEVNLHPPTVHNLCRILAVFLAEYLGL
Description: Flow cytometry. Cells were dissociated with 0.125% trypsin and washed once in once in Flow buffer (PBS with 2% BSA). For cell-surface analysis, antibody staining was carried out in Flow buffer for 30 min on ice at 4° C. in the dark. For intracellular antigens, cells were first fixed with 4% PFA (Electron Microscopy Sciences) in PBS for 10 min on ice, followed by permeabilization using Flow buffer with 0.1% TritonX-100 (Sigma) for 5 min at room temperature. Cells were washed twice with Flow buffer, followed by staining for 30 min on ice at 4° C. in the dark. Stained cells were washed thrice with Flow buffer and 7-AAD viability dye (3-5 μl, BioLegend) was added before quantification. […] Stained cells were quantified on an LSRII flow cytometer (BD Biosciences) or an iQue Screener PLUS (IntelliCyt), and data were analyzed using FlowJo software (RRID:SCR_008520). […]
Immunofluorescence microscopy. […] For mean fluorescence intensity (MFI) measurements, Membrite™ staining intensity was used for automated image segmentation (ImageJ custom macro, available upon request) for operator independent unbiased selection of primary regions of interest (ROI) masks (in the green channel) and the mean fluorescence intensity was measured from the APC and/or Alexa594 channel. […]

Row | Molecule | KO-score [2] | mean percent edited [2] [%] | further results
1 | QPCTL #2: sgRNA from the TKOv3 library, sequence ACAGGGCACAGCCGAATCCG (chemistry not fully specified) |  |  | KO-score ([1]; ICE): 47; mean percent edited [1]: 33.23%
2 | QPCT #3: sgRNA from the TKOv3 library, sequence GACCAAATGTCGTTTAGCAG (chemistry not fully specified) | 36.33 | 68.18 | 
3 | QPCT #1: sgRNA from the TKOv3 library, sequence TCAAGGATCACTCTTTGGAG (chemistry not fully specified) | 56 | 33.15 | 
4 | QPCT #2: sgRNA from the TKOv3 library, sequence AGAGGCACCAGCCAACTGCA (chemistry not fully specified) | 76.4 | 80.2 | 
5 | Guide #4: sgRNA targeting CD47 from the TKOv3 library, sequence GAAGACTATACAACCTCCTA (chemistry not fully specified) |  |  | gene inactivation [3]: ineffective at gene inactivation
6 | CCCOc1ccc([C@H]2CNC(=O)N2c2ccc3[nH]cnc3c2)cc1 [PQ912] |  |  | CC2C6 binding [4]: decreased
7 | QPCTL #1: sgRNA from the TKOv3 library, sequence GGGTTCGCACAACCAGCAGG (chemistry not fully specified) |  |  | mean percent edited [1]: 58.2%
